Source: ChEMBL document CHEMBL3991601, “The target landscape of clinical kinase drugs” (Science, 2017)
Activity calls are given as the source filed them.

Key:
[1] = biological target: RAC-gamma serine/threonine-protein kinase (Homo sapiens, UniProt Q9Y243)
[2] = biological target: T1, Beta-adrenergic receptor kinase 1 (Homo sapiens, UniProt P25098)
T1 sequence (P25098 whole entry): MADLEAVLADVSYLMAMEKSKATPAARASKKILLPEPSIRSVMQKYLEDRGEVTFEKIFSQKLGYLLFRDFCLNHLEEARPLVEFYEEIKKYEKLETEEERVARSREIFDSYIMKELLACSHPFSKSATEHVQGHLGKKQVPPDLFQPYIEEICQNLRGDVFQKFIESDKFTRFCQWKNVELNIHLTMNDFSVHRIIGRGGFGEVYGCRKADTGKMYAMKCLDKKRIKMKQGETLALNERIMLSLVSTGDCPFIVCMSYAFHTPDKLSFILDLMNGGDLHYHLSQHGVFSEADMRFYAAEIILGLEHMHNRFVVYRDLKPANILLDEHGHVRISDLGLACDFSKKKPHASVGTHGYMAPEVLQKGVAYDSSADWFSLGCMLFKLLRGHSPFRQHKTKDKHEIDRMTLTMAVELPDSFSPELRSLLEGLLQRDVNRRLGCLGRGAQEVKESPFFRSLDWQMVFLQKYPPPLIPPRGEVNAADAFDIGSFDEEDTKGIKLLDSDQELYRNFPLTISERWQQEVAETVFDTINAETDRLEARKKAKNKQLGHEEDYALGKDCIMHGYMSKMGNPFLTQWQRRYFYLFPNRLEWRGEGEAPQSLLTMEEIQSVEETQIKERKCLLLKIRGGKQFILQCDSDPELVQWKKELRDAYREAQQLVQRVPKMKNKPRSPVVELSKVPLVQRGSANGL

[3] = biological target: Insulin-like growth factor 1 receptor (Homo sapiens, UniProt P08069)
[4] = biological target: Eukaryotic translation initiation factor 2-alpha kinase 1 (Homo sapiens, UniProt Q9BQI3)
Eukaryotic translation initiation factor 2-alpha kinase 1, sequence (Q9BQI3 whole entry): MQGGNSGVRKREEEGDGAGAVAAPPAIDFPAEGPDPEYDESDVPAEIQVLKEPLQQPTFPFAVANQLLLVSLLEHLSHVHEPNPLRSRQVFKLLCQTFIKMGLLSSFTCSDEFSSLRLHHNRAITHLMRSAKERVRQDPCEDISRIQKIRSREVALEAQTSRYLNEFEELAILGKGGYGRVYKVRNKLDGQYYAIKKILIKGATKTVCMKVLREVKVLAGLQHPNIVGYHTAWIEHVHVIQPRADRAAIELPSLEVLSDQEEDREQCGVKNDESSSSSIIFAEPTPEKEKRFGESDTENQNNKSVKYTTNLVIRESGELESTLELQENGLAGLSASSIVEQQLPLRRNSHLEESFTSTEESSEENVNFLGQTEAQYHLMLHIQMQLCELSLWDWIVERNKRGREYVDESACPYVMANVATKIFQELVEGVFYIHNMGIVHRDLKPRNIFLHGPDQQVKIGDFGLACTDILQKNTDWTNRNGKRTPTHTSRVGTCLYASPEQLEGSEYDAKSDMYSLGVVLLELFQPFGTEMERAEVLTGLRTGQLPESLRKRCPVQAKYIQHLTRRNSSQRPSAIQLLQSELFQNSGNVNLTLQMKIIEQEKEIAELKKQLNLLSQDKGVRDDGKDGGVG

[5] = biological target: Mitogen-activated protein kinase kinase kinase 4 (Homo sapiens, UniProt Q9Y6R4)
Mitogen-activated protein kinase kinase kinase 4, sequence (Q9Y6R4 whole entry): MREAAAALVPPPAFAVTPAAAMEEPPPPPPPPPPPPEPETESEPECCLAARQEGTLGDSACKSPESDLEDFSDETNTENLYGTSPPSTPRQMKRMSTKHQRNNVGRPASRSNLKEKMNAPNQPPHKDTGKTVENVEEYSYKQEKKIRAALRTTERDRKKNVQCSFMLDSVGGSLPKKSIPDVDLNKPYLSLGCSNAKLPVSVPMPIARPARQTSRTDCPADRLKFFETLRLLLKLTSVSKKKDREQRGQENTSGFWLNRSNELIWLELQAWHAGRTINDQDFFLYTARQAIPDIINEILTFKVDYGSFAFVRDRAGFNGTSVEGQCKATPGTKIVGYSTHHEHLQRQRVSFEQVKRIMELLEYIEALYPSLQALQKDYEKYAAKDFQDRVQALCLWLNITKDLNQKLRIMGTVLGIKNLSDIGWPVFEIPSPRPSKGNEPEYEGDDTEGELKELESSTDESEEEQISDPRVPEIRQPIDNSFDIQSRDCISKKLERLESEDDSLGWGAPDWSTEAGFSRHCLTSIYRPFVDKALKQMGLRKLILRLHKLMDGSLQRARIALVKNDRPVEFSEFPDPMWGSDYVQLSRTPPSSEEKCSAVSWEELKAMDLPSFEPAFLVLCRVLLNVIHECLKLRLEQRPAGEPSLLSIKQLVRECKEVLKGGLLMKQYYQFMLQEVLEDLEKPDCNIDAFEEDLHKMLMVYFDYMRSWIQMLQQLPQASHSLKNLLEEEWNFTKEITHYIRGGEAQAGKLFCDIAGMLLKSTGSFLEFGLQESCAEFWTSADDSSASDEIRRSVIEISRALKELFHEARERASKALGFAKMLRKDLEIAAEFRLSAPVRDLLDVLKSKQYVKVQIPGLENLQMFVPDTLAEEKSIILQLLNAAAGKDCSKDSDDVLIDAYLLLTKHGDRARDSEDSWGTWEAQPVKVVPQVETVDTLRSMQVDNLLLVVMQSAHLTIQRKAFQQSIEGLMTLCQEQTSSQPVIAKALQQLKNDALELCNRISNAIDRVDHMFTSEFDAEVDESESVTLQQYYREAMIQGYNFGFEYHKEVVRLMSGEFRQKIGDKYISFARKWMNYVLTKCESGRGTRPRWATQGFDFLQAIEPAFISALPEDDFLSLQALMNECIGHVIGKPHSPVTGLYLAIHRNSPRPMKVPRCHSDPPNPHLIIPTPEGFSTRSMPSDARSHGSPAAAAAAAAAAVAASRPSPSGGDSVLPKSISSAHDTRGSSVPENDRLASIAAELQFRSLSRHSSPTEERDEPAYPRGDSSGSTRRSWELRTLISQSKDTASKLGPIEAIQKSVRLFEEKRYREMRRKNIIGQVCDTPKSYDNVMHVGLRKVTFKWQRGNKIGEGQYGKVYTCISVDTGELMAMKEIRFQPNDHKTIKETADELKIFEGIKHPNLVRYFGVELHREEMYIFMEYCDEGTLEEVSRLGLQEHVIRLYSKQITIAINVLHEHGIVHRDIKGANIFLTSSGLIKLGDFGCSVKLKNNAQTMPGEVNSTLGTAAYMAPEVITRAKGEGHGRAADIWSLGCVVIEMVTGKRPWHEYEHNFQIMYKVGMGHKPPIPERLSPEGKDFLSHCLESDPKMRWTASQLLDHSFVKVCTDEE

[6] = biological target: Maternal embryonic leucine zipper kinase (Homo sapiens, UniProt Q14680)
Maternal embryonic leucine zipper kinase, sequence (Q14680 whole entry): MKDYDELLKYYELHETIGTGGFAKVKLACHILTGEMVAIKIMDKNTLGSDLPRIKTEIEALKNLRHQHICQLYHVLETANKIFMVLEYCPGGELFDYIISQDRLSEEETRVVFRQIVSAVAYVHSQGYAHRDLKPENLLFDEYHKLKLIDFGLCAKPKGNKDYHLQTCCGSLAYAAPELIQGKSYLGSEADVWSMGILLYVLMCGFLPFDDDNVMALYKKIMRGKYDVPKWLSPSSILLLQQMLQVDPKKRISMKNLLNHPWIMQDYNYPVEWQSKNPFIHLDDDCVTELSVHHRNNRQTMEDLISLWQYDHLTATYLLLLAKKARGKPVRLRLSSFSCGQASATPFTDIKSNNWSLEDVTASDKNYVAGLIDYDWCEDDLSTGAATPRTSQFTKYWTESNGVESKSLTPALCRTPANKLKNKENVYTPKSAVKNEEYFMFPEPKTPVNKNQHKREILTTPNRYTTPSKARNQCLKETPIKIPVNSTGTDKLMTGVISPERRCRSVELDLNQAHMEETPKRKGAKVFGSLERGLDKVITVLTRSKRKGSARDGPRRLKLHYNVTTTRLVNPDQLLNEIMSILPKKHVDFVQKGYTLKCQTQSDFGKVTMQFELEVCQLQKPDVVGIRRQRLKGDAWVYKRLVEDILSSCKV

[7] = biological target: T2, Peroxisomal acyl-coenzyme A oxidase 3 (Homo sapiens, UniProt O15254)
T2 sequence (O15254 whole entry): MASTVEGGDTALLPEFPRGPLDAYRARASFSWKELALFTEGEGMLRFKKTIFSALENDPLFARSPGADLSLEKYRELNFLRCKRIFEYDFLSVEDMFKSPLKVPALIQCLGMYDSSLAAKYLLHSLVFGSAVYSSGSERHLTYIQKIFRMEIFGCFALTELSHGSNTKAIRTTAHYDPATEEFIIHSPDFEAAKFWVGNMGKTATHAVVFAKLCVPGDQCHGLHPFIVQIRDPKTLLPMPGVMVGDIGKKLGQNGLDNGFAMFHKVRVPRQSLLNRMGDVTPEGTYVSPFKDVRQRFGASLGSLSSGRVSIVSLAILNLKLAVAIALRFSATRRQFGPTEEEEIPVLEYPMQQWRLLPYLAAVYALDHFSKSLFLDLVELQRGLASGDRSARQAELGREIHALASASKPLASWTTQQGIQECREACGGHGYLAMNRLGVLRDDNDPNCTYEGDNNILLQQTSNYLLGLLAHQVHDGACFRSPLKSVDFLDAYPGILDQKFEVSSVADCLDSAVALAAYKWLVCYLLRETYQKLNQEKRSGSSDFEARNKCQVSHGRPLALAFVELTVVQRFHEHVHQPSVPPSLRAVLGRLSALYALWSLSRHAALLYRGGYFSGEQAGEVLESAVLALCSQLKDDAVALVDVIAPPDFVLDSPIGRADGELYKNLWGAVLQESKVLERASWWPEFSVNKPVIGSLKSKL

[8] = biological target: Mitogen-activated protein kinase 11 (Homo sapiens, UniProt Q15759)
Mitogen-activated protein kinase 11, sequence (Q15759 whole entry): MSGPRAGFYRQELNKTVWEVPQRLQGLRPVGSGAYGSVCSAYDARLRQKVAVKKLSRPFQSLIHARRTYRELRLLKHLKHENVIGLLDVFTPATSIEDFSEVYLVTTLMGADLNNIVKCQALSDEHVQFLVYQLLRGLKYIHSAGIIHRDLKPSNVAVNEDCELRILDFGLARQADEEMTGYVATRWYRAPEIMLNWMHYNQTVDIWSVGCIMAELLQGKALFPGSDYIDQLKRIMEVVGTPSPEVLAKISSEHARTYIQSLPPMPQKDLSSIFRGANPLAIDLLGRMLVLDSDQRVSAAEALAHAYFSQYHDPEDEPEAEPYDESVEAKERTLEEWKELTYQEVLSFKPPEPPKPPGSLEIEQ

[9] = biological target: Non-receptor tyrosine-protein kinase TYK2 (Homo sapiens, UniProt P29597)
Non-receptor tyrosine-protein kinase TYK2, sequence (P29597 whole entry, canonical isoform): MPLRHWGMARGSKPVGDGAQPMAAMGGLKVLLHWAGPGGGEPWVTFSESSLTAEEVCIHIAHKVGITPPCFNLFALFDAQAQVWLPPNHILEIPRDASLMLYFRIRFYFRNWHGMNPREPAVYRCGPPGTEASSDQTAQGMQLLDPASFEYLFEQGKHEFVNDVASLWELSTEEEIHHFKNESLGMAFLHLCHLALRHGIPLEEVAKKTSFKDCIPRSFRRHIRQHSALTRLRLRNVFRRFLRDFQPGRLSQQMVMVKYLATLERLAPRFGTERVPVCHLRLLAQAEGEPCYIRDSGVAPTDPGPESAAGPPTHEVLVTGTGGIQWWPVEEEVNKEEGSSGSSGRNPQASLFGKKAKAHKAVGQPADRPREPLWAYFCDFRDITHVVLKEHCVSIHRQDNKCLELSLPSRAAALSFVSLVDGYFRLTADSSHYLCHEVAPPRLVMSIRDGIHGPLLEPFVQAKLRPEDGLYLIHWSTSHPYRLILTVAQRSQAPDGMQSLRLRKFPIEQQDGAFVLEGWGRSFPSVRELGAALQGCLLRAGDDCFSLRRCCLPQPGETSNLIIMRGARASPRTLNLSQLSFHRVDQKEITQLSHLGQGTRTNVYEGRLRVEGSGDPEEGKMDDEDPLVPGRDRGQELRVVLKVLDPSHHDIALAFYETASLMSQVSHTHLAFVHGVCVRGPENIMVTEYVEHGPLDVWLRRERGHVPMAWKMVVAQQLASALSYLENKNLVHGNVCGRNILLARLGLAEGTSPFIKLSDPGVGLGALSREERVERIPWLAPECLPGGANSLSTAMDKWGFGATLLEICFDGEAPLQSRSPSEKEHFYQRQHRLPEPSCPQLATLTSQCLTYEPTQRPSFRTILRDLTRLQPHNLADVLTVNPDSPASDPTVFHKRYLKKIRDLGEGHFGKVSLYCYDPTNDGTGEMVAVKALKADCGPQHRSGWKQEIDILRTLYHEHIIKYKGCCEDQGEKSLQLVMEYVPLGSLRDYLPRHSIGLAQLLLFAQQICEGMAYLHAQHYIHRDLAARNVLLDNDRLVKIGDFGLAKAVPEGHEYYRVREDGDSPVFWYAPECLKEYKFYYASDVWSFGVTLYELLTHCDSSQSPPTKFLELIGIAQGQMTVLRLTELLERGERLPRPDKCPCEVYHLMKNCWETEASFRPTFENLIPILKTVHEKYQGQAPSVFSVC

[10] = biological target: S-adenosylmethionine synthase isoform type-2 (Homo sapiens, UniProt P31153)
Note: in the data inactive means no Kd found up to 30 µM.

RAC-gamma serine/threonine-protein kinase, sequence (Q9Y243 whole entry): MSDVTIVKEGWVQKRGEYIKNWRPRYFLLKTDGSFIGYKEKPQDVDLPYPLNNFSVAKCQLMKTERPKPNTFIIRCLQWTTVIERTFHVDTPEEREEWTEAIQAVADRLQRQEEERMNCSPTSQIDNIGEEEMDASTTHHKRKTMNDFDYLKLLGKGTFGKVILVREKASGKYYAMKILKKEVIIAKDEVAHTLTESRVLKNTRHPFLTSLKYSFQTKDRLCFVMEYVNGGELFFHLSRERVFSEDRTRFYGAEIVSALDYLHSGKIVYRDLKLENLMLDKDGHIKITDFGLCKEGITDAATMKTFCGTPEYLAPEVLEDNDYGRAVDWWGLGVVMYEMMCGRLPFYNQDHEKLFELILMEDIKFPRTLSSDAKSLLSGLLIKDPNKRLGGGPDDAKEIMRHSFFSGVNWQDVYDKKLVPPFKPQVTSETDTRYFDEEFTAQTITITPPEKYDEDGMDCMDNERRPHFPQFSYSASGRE

Structure (SMILES) | Kd [1] | Kd [2] | Kd [3] | Kd [4] | Kd [5] | Kd [6] | Kd [7] | Kd [8] | Kd [9] | Kd [10]
Cn1cc(-c2ccc3nnc(C(F)(F)c4ccc5ncccc5c4)n3n2)cn1 [JNJ-38877605] | > 30 µM (inactive) | > 30 µM (inactive) | > 30 µM (inactive) | > 30 µM (inactive) | > 30 µM (inactive) | > 30 µM (inactive) | > 30 µM (inactive) | > 30 µM (inactive) | > 30 µM (inactive) | 
Cn1ncc(Cl)c1-c1cc(C(=O)N[C@H](CN)Cc2cccc(F)c2)sc1Cl [AFURESERTIB] |  | > 30 µM (inactive) | > 30 µM (inactive) | > 30 µM (inactive) | > 30 µM (inactive) | > 30 µM (inactive) | > 30 µM (inactive) | > 30 µM (inactive) | > 30 µM (inactive) | > 30 µM (inactive)
CCc1cnn2c(NCc3ccc[n+]([O-])c3)cc(N3CCCC[C@H]3CCO)nc12 [DINACICLIB] | > 30 µM (inactive) | > 30 µM (inactive) |  | > 30 µM (inactive) | > 30 µM (inactive) | > 30 µM (inactive) | > 30 µM (inactive) | > 30 µM (inactive) | > 30 µM (inactive) | > 30 µM (inactive)
COc1cc2nccc(Oc3ccc(NC(=O)Nc4cc(C)on4)c(Cl)c3)c2cc1OC [TIVOZANIB] | > 30 µM (inactive) | > 30 µM (inactive) | > 30 µM (inactive) | > 30 µM (inactive) | > 30 µM (inactive) | > 30 µM (inactive) | > 30 µM (inactive) |  | > 30 µM (inactive) | > 30 µM (inactive)
C[C@@H](Nc1cc(F)cc(F)c1)c1cc(C(=O)N(C)C)cc2c(=O)cc(N3CCOCC3)oc12 [AZD-8186] |  | > 30 µM (inactive) | > 30 µM (inactive) | > 30 µM (inactive) | > 30 µM (inactive) | > 30 µM (inactive) | > 30 µM (inactive) | > 30 µM (inactive) | > 30 µM (inactive) | > 30 µM (inactive)
CNC(=O)c1ccc(C)c(-n2c(C)cc(OCc3ccc(F)cc3F)c(Br)c2=O)c1 [PH-797804] | > 30 µM (inactive) | > 30 µM (inactive) | > 30 µM (inactive) | > 30 µM (inactive) | > 30 µM (inactive) | > 30 µM (inactive) | > 30 µM (inactive) |  | > 30 µM (inactive) | > 30 µM (inactive)
C[C@@H](c1ccc2nccn2c1)n1nnc2ncc(-c3cnn(C)c3)nc21 [SAVOLITINIB] |  | > 30 µM (inactive) | > 30 µM (inactive) | > 30 µM (inactive) | > 30 µM (inactive) | > 30 µM (inactive) | > 30 µM (inactive) | > 30 µM (inactive) | > 30 µM (inactive) | > 30 µM (inactive)
CN1CCC(COc2cnc(-c3cccc(Cn4nc(-c5cccc(C#N)c5)ccc4=O)c3)nc2)CC1 [TEPOTINIB] | > 30 µM (inactive) | > 30 µM (inactive) | > 30 µM (inactive) | > 30 µM (inactive) | > 30 µM (inactive) | > 30 µM (inactive) | > 30 µM (inactive) | > 30 µM (inactive) |  | > 30 µM (inactive)
Cn1cc(-c2ccc(F)c(C(F)(F)F)c2)nc1C1CCN(c2ncnc3[nH]ncc23)CC1 [LY-2584702] | > 30 µM (inactive) | > 30 µM (inactive) | > 30 µM (inactive) | > 30 µM (inactive) | > 30 µM (inactive) | > 30 µM (inactive) | > 30 µM (inactive) | > 30 µM (inactive) | > 30 µM (inactive) | 
Cc1cn(-c2cc(NC(=O)c3ccc(C)c(Nc4nccc(-c5cccnc5)n4)c3)cc(C(F)(F)F)c2)cn1 [NILOTINIB] |  | > 30 µM (inactive) |  |  |  |  | > 30 µM (inactive) |  |  | > 30 µM (inactive)
Cc1cc(Nc2cc(N3CCN(C)CC3)nc(/C=C/c3ccccc3)n2)n[nH]1 [ENMD-2076] |  | > 30 µM (inactive) |  |  | > 30 µM (inactive) |  | > 30 µM (inactive) | > 30 µM (inactive) |  | > 30 µM (inactive)
OCCn1cc(-c2cnc3nnn(Cc4ccc5ncccc5c4)c3n2)cn1 [PF-04217903] | > 30 µM (inactive) | > 30 µM (inactive) |  | > 30 µM (inactive) | > 30 µM (inactive) | > 30 µM (inactive) | > 30 µM (inactive) | > 30 µM (inactive) | > 30 µM (inactive) | > 30 µM (inactive)
O=C(Nc1cccc(Cl)c1)Nc1ncc(CCNc2ncnc3ccsc23)s1 [SNS-314] |  |  |  | > 30 µM (inactive) | > 30 µM (inactive) |  | 0.026 µM (active) | > 30 µM (inactive) |  | > 30 µM (inactive)
Cc1nc(N)sc1-c1ccnc(Nc2ccc(N3CCOCC3)cc2)n1 [CYC-116] |  | > 30 µM (inactive) |  | > 30 µM (inactive) | > 30 µM (inactive) |  | > 30 µM (inactive) | > 30 µM (inactive) |  | > 30 µM (inactive)
Cc1c(F)cc(C(=O)NC2CC2)cc1-c1ccc(C(=O)NCC(C)(C)C)cn1 [LOSMAPIMOD] | > 30 µM (inactive) | > 30 µM (inactive) | > 30 µM (inactive) | > 30 µM (inactive) | > 30 µM (inactive) | > 30 µM (inactive) | > 30 µM (inactive) |  | > 30 µM (inactive) | 
CCn1c(-c2nonc2N)nc2c(C#CC(C)(C)O)ncc(OC[C@H]3CCCNC3)c21 [GSK-690693] |  | > 30 µM (inactive) |  |  |  |  | > 30 µM (inactive) |  |  | > 30 µM (inactive)
C1=C/COCc2cc(ccc2OCCN2CCCC2)Nc2nccc(n2)-c2cccc(c2)COC/1 [PACRITINIB] | > 30 µM (inactive) | > 30 µM (inactive) | > 30 µM (inactive) | > 30 µM (inactive) | > 30 µM (inactive) | > 30 µM (inactive) | > 30 µM (inactive) | > 30 µM (inactive) |  | > 30 µM (inactive)
CN1CCN(c2ccc3nc(-c4c(N)c5c(F)cccc5[nH]c4=O)[nH]c3c2)CC1 [DOVITINIB] |  | > 30 µM (inactive) |  |  |  |  | > 30 µM (inactive) |  |  | 
Nc1nc(N)c2nc(-c3cccc(O)c3)c(-c3cccc(O)c3)nc2n1 [TG100-115] |  | > 30 µM (inactive) |  |  |  |  | > 30 µM (inactive) |  |  | > 30 µM (inactive)
Cc1ccc(NC(=O)c2ccc(CN3CC[C@H](N(C)C)C3)c(C(F)(F)F)c2)cc1Nc1nccc(-c2cncnc2)n1 [BAFETINIB] | > 30 µM (inactive) | > 30 µM (inactive) | > 30 µM (inactive) | > 30 µM (inactive) | > 30 µM (inactive) | > 30 µM (inactive) | > 30 µM (inactive) | 1.72 µM | > 30 µM (inactive) | 
C[C@@H]1CN(Cc2ccc(F)cc2)[C@@H](C)CN1C(=O)c1cc2c(C(=O)C(=O)N(C)C)cn(C)c2cc1Cl [TALMAPIMOD] | > 30 µM (inactive) | > 30 µM (inactive) | > 30 µM (inactive) | > 30 µM (inactive) | > 30 µM (inactive) | > 30 µM (inactive) | > 30 µM (inactive) |  | > 30 µM (inactive) | > 30 µM (inactive)
COc1cc(CCc2cc(NC(=O)c3ccc(N4C[C@@H](C)N[C@@H](C)C4)cc3)n[nH]2)cc(OC)c1 [AZD-4547] | > 30 µM (inactive) | > 30 µM (inactive) | > 30 µM (inactive) | 0.17 µM (active) | > 30 µM (inactive) | > 30 µM (inactive) | > 30 µM (inactive) | > 30 µM (inactive) | > 30 µM (inactive) | 
